Test results taken from ChEMBL document CHEMBL2331362, “Identification of N-acyl 4-(5-pyrimidine-2,4-dionyl)phenylalanine derivatives and their orally active prodrug esters as dual-acting alpha4-beta1 and alpha4-beta7 receptor antagonists” (Bioorg Med Chem Lett, 2013).

Assays:
[1] = AUC (0 to 8 hrs) in rat at 10 mg/kg, iv; assay type: ADME, organism-based; parameters: time < 8 hr, dose 10 mg/kg, route intravenous; details: plasma
[2] = Apparent permeability across human Caco2 cells; assay type: ADME, cell-based; details: Caco-2
[3] = molecular target: Integrin alpha-4/beta-7 (Homo sapiens) (UniProt P13612+P26010); assay: Inhibition of human MAdCAM1 binding to integrin alpha4beta7 receptor in human RPMI 8866 cells labeled with Calcein AM relative to (S)-2-(2-chloro-6-methylbenzamido)-3-(4-(2,6-dichlorobenzamido)phenyl)propanoic acid; assay type: cell-based
Integrin alpha-4/beta-1 [4] = molecular target: T1, Integrin alpha-4/beta-1 (Homo sapiens, UniProt P05556+P13612); assay: Inhibition of human VCAM1 binding to integrin alpha4beta1 receptor in human Ramos cells labeled with Calcein AM relative to (S)-2-(2-chloro-6-methylbenzamido)-3-(4-(2,6-dichlorobenzamido)phenyl)propanoic acid; assay type: cell-based
T1 sequence (P05556 whole entry, one chain of several): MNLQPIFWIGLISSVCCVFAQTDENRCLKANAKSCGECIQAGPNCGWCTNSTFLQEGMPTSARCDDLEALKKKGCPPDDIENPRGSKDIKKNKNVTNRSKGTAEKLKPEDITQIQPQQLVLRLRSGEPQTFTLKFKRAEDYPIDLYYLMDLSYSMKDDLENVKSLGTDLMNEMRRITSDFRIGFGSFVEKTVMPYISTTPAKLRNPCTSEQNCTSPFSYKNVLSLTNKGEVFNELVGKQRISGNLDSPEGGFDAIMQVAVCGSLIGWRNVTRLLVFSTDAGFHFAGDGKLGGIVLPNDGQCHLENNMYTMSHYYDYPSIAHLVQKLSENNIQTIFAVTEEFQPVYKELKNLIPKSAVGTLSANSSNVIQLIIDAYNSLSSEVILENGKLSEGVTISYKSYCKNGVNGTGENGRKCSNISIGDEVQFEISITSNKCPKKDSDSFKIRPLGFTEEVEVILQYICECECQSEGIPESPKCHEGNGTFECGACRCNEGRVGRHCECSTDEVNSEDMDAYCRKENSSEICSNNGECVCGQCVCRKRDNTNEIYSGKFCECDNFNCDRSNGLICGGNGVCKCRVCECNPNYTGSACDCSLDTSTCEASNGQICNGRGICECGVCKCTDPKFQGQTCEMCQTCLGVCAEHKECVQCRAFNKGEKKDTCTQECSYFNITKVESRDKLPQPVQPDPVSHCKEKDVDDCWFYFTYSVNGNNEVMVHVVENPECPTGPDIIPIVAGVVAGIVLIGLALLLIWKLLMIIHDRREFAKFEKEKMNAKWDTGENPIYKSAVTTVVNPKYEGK

Integrin alpha-4/beta-7 = molecular target: T2, Integrin alpha-4/beta-7 (Homo sapiens, UniProt P13612+P26010); assay: Inhibition of human MAdCAM1 binding to integrin alpha4beta7 receptor in human RPMI 8866 cells labeled with Calcein AM; assay type: cell-based
T2 sequence (P13612 whole entry): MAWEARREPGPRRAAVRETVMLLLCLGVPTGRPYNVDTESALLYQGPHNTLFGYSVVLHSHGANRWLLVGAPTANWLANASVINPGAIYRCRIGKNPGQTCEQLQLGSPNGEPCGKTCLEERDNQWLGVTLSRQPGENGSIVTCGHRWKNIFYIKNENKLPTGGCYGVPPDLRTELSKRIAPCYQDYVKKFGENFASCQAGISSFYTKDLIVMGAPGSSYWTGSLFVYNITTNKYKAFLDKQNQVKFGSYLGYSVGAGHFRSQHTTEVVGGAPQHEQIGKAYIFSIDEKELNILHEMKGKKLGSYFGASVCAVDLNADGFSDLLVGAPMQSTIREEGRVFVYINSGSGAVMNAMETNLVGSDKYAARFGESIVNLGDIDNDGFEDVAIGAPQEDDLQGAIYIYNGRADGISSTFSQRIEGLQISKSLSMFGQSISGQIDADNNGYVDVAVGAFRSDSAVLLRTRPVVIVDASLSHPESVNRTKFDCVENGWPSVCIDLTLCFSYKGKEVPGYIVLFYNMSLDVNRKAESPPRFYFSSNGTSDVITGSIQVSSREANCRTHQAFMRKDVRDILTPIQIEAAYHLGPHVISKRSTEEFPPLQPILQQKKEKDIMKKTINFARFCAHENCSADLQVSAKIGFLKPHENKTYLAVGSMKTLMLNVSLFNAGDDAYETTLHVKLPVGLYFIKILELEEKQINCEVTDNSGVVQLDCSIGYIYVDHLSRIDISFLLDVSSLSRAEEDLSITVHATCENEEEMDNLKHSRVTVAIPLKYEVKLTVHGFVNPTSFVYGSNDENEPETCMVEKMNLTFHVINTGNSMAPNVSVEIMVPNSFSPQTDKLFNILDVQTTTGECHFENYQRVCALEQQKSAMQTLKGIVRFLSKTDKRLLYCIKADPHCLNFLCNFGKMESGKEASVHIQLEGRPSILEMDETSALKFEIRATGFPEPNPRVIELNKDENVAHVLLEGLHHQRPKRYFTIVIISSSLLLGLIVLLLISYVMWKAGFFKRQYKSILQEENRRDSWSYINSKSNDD
T2 sequence (P26010 whole entry): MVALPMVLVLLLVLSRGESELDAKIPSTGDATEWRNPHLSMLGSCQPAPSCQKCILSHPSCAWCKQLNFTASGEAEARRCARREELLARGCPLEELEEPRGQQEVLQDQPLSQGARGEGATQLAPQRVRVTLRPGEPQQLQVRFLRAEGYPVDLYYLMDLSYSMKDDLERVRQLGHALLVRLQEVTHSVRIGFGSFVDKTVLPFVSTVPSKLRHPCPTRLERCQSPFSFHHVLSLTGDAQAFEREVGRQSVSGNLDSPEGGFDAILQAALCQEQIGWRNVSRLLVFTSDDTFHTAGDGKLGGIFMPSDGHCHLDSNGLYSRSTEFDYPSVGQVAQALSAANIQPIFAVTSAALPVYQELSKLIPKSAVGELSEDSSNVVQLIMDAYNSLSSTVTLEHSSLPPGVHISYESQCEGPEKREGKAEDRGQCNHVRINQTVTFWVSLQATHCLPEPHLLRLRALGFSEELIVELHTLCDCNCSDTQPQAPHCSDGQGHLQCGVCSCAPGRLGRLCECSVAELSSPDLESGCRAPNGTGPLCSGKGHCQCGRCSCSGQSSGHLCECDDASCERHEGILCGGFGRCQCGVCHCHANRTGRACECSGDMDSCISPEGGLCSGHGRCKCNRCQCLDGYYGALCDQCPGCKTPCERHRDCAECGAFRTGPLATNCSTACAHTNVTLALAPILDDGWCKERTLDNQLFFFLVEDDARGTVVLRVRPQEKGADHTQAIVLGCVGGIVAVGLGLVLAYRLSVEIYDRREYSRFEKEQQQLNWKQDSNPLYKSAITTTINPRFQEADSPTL

Integrin alpha-4/beta-1 [5] = molecular target: T1, Integrin alpha-4/beta-1; assay: Inhibition of human VCAM1 binding to integrin alpha4beta1 receptor in human Ramos cells labeled with Calcein AM; assay type: cell-based
[6] = Distribution coefficient, log D of the compound; assay type: physicochemical; details: octanol/water
[7] = Mean residence time in cynomolgus monkey at 10 mg/kg, iv; assay type: ADME, organism-based, Macaca fascicularis; parameters: dose 10 mg/kg, route intravenous; details: in vivo
[8] = Mean residence time in dog at 5 mg/kg, iv; assay type: ADME, organism-based, Canis lupus familiaris; parameters: dose 5 mg/kg, route intravenous; details: in vivo
[9] = Mean residence time in rat at 10 mg/kg, iv; assay type: ADME, organism-based; parameters: dose 10 mg/kg, route intravenous; details: in vivo
[10] = Mean residence time in mouse at 10 mg/kg, iv; assay type: ADME, organism-based; parameters: dose 10 mg/kg, route intravenous; details: in vivo
[11] = Half life in cynomolgus monkey at 10 mg/kg, iv; assay type: ADME, organism-based, Macaca fascicularis; parameters: dose 10 mg/kg, route intravenous; details: in vivo
[12] = Half life in dog at 5 mg/kg, iv; assay type: ADME, organism-based, Canis lupus familiaris; parameters: dose 5 mg/kg, route intravenous; details: in vivo
[13] = Clearance in cynomolgus monkey at 10 mg/kg, iv; assay type: ADME, organism-based, Macaca fascicularis; parameters: dose 10 mg/kg, route intravenous; details: in vivo
[14] = Clearance in dog at 5 mg/kg, iv; assay type: ADME, organism-based, Canis lupus familiaris; parameters: dose 5 mg/kg, route intravenous; details: in vivo
[15] = Clearance in mouse at 10 mg/kg, iv; assay type: ADME, organism-based; parameters: dose 10 mg/kg, route intravenous; details: in vivo
[16] = Clearance in rat at 10 mg/kg, iv; assay type: ADME, organism-based; parameters: dose 10 mg/kg, route intravenous; details: in vivo
[17] = AUC (0 to 8 hrs) in cynomolgus monkey at 10 mg/kg, iv; assay type: ADME, organism-based, Macaca fascicularis; parameters: time < 8 hr, dose 10 mg/kg, route intravenous; details: plasma
[18] = AUC (0 to 8 hrs) in dog at 5 mg/kg, iv; assay type: ADME, organism-based, Canis lupus familiaris; parameters: time < 8 hr, dose 5 mg/kg, route intravenous; details: plasma
[19] = AUC (0 to 8 hrs) in mouse at 10 mg/kg, iv; assay type: ADME, organism-based; parameters: time < 8 hr, dose 10 mg/kg, route intravenous; details: plasma

Cc1c(-c2ccc(C[C@H](NC(=O)c3c(F)cccc3F)C(=O)O)cc2)c(=O)n(C)c(=O)n1C
AUC(0-t) at 8 h [1]: 41500 ng·h/mL
Papp [2]: 0.77 ×10⁻⁶ cm/s
Ratio IC50 [3]: 3.3
Ratio IC50 (Integrin alpha-4/beta-1 [4]): 3.2
IC50 (Integrin alpha-4/beta-7): 81 nM
IC50 (Integrin alpha-4/beta-1 [5]): 18 nM
logD [6]: -2.36
MRT [7]: 15 min
MRT [8]: 12.6 min
MRT [9]: 36.6 min
MRT [10]: 15.6 min
half-life [11]: 87.6 min
half-life [12]: 11.4 min
clearance [13]: 6.88 mL/min/kg
clearance [14]: 29.7 mL/min/kg
clearance [15]: 21 mL/min/kg
clearance [16]: 4.8 mL/min/kg
AUC(0-t) at 8 h [17]: 22200 ng·h/mL
AUC(0-t) at 8 h [18]: 2790 ng·h/mL
AUC(0-t) at 8 h [19]: 7890 ng·h/mL
